Laboratory results published in publication PMC7026418, “The kinase polypharmacology landscape of clinical PARP inhibitors” (Scientific Reports, 2020).

Columns and labels:
[1] = molecular target: T1, MYLK4 (Homo sapiens, UniProt Q86YV6); assay: HotSpot radiometric kinase assay at […] (Km ATP), follow-up of KinomeScan binding; type: biochemical; details: read-out: Rucaparib
T1 sequence (Q86YV6 1-388): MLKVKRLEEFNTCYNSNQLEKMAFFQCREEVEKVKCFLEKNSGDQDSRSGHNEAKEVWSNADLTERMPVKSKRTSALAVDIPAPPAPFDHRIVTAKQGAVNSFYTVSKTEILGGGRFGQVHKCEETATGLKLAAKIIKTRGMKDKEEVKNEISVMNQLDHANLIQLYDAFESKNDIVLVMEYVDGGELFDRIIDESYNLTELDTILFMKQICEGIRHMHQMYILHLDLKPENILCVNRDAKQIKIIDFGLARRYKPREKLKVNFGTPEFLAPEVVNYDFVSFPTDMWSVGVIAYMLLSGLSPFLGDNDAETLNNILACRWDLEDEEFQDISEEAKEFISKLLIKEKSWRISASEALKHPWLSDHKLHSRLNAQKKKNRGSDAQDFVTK

[2] = molecular target: T2, CDK16 (Homo sapiens, UniProt Q00536); assay: biochemical; parameters: Reaction Biology HotSpot radiometric 33P-ATP catalytic assay at Km ATP; percent inhibition versus DMSO, mean n=2; details: Km ATP
T2 construct: with cyclin Y
T2 sequence (Q00536 whole entry): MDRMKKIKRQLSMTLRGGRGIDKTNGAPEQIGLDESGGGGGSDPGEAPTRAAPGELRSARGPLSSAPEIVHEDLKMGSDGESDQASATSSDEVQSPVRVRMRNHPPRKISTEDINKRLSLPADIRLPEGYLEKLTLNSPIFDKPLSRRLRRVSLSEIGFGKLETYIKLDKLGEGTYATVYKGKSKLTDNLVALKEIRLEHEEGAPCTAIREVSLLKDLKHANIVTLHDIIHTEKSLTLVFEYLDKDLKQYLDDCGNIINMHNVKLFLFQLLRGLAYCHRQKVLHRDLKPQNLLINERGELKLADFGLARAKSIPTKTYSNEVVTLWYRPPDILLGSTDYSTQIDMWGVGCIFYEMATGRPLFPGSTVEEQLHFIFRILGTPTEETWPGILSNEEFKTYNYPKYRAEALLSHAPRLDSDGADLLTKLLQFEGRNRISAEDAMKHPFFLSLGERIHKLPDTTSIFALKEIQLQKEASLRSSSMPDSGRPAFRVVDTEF
T2 sequence (Q8ND76 2-341 partner): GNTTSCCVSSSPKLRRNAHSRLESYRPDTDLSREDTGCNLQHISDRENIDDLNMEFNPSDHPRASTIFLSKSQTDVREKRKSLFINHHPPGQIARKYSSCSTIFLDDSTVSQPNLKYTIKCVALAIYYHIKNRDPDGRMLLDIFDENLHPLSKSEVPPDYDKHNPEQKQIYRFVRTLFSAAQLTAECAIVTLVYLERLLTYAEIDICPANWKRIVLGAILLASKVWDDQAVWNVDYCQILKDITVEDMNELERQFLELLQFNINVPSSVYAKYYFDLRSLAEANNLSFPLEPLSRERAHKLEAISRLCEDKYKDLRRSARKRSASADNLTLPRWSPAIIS
From the text: (§1) Unreacted phosphate is removed via washing the filters.

[3] = molecular target: CDK4-cyclinD3 (Homo sapiens, UniProt P11802); assay: biochemical; parameters: Reaction Biology HotSpot radiometric 33P-ATP catalytic assay at Km ATP; percent inhibition versus DMSO, mean n=2; details: Km ATP
Sequence of CDK4-cyclinD3 (P11802 whole entry): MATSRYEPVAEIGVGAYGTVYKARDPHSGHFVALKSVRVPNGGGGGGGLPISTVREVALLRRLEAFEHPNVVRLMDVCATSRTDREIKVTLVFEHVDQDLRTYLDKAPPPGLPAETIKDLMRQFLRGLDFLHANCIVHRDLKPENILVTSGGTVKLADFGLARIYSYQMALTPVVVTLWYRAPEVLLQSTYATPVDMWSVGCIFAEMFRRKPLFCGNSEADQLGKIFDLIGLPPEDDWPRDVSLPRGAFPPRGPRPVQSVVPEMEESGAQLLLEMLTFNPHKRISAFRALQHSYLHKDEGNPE
Sequence of CDK4-cyclinD3 (P30281 whole entry partner): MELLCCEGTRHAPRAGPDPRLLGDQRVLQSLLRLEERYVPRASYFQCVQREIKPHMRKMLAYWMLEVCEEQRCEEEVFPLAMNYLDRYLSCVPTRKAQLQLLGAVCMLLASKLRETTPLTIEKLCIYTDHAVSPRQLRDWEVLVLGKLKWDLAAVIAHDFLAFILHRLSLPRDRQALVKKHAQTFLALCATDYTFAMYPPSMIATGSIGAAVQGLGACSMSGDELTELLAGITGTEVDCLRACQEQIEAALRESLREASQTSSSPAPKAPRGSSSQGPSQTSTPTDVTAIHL
From the text: as §1

[4] = molecular target: HIPK1 (Homo sapiens, UniProt Q86Z02); assay: biochemical; parameters: Reaction Biology HotSpot radiometric 33P-ATP catalytic assay at Km ATP; percent inhibition versus DMSO, mean n=2; details: Km ATP
Sequence of HIPK1 (Q86Z02 whole entry): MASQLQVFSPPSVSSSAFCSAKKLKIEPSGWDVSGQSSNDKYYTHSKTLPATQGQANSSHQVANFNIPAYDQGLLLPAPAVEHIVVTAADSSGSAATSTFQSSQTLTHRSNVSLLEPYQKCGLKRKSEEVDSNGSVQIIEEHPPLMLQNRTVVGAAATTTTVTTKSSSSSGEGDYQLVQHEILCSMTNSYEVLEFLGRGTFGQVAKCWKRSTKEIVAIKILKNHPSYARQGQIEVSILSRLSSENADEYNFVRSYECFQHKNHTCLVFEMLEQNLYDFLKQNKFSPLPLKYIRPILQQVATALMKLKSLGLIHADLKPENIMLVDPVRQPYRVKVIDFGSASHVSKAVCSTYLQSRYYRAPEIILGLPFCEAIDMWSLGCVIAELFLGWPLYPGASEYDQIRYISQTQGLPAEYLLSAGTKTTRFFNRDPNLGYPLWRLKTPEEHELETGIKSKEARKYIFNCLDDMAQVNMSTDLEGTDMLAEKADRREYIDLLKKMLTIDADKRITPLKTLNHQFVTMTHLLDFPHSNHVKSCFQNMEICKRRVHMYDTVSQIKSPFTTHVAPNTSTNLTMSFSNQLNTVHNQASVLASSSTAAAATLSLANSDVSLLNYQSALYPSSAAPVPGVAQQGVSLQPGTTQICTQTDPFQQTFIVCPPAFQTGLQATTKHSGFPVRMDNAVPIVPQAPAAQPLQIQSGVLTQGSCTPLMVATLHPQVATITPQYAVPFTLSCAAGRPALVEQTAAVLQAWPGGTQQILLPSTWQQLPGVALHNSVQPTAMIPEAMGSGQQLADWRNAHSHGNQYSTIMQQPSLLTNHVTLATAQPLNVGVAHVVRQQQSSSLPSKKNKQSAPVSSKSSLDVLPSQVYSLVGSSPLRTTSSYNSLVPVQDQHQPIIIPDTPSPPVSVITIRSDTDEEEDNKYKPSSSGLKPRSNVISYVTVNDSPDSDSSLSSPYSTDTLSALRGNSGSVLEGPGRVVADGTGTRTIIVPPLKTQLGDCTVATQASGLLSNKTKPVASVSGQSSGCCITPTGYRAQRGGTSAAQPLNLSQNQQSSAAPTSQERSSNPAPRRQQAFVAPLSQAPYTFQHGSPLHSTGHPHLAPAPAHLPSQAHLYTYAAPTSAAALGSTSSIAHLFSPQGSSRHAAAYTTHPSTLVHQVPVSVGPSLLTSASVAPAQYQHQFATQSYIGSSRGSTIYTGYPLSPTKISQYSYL
From the text: as §1

[5] = molecular target: STK17A (Homo sapiens, UniProt Q9UEE5); assay: biochemical; parameters: Reaction Biology HotSpot radiometric 33P-ATP catalytic assay at Km ATP; percent inhibition versus DMSO, mean n=2; details: Km ATP
Sequence of STK17A (Q9UEE5 whole entry): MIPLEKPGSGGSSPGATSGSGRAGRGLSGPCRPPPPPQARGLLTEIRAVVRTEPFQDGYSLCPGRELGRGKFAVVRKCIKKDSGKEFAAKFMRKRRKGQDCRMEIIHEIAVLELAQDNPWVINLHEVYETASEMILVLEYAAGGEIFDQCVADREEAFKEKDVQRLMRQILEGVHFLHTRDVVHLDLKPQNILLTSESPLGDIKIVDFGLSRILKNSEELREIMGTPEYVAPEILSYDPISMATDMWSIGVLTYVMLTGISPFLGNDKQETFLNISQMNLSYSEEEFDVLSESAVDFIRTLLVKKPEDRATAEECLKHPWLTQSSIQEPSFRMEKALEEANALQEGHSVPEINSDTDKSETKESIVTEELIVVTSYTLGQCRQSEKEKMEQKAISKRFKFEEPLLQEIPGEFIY
From the text: as §1

[6] = molecular target: T3, TSSK3 (Homo sapiens, UniProt Q96PN8); assay: biochemical; parameters: Reaction Biology HotSpot radiometric 33P-ATP catalytic assay at Km ATP; percent inhibition versus DMSO, mean n=2; details: Km ATP
T3 sequence (Q96PN8 1-268): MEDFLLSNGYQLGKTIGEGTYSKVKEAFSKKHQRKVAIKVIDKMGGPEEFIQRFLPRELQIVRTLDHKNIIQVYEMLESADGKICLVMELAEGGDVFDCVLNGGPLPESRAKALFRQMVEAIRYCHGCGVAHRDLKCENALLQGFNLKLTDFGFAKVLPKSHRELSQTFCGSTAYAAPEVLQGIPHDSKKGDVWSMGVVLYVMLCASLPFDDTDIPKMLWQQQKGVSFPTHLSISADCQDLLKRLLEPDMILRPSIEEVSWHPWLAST
From the text: as §1

[7] = molecular target: T4, LATS2 (Homo sapiens, UniProt Q9NRM7); assay: biochemical; parameters: Reaction Biology HotSpot radiometric 33P-ATP catalytic assay at Km ATP; percent inhibition versus DMSO, mean n=2; details: Km ATP
T4 sequence (Q9NRM7 1-1088): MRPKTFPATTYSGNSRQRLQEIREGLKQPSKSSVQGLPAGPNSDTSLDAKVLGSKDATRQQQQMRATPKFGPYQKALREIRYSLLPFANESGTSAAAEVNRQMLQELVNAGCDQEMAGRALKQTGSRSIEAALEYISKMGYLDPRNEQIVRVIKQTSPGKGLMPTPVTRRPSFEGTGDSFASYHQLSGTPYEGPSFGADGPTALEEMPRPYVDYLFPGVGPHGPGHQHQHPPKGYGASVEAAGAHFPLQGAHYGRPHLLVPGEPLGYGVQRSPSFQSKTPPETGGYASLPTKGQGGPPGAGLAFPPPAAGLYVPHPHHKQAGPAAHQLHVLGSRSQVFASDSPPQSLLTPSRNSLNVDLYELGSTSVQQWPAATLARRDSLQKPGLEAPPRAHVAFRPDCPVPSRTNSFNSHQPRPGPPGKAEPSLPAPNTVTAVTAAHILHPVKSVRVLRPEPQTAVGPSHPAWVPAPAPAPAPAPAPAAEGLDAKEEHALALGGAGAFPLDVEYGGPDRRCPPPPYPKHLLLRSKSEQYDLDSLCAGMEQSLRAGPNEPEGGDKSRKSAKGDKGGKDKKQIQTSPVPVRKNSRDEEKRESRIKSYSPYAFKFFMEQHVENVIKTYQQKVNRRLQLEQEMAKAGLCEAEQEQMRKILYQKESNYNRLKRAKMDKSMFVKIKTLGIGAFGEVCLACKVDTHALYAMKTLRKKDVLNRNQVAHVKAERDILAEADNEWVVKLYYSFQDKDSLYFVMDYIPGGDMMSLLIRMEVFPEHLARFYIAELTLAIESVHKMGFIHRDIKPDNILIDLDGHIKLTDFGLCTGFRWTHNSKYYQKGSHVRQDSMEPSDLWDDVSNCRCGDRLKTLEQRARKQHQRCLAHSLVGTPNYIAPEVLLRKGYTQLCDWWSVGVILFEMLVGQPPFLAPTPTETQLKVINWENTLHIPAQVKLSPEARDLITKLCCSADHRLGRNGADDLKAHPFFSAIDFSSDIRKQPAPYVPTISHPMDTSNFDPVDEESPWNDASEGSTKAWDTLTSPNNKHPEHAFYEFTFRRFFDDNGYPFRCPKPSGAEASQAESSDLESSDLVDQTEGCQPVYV
From the text: as §1

[8] = molecular target: T1, MYLK4; assay: biochemical; parameters: Reaction Biology HotSpot radiometric 33P-ATP catalytic assay at Km ATP; percent inhibition versus DMSO, mean n=2; details: Km ATP
From the text: as §1

[9] = molecular target: PIM1 (Homo sapiens, UniProt P11309); assay: biochemical; parameters: Reaction Biology HotSpot radiometric 33P-ATP catalytic assay at Km ATP; percent inhibition versus DMSO, mean n=2; details: Km ATP
Sequence of PIM1 (P11309 whole entry): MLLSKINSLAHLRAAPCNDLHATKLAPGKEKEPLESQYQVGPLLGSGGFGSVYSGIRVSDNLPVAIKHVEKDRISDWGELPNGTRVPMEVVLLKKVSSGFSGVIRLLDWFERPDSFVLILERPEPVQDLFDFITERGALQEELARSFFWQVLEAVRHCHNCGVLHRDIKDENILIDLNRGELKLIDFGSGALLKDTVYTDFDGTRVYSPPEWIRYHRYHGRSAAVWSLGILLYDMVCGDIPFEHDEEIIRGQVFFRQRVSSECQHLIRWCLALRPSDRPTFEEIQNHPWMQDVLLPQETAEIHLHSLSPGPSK
From the text: as §1

[10] = molecular target: PIM2 (Homo sapiens, UniProt Q9P1W9); assay: biochemical; parameters: Reaction Biology HotSpot radiometric 33P-ATP catalytic assay at Km ATP; percent inhibition versus DMSO, mean n=2; details: Km ATP
Sequence of PIM2 (Q9P1W9 whole entry): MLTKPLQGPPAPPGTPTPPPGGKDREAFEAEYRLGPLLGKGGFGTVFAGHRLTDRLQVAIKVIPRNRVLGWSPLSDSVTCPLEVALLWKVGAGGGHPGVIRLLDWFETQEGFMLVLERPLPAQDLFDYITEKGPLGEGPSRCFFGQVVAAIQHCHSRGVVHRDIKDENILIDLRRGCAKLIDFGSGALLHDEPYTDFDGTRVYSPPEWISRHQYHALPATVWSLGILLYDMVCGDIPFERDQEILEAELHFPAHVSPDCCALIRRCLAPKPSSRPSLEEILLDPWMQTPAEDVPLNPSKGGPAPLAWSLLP
From the text: as §1

[11] = molecular target: PIM3 (Homo sapiens, UniProt Q86V86); assay: biochemical; parameters: Reaction Biology HotSpot radiometric 33P-ATP catalytic assay at Km ATP; percent inhibition versus DMSO, mean n=2; details: Km ATP
From the text: as §1

[12] = molecular target: DYRK1B (Homo sapiens, UniProt Q9Y463); assay: biochemical; details: read-out: % inhibition
Sequence of DYRK1B (Q9Y463 whole entry): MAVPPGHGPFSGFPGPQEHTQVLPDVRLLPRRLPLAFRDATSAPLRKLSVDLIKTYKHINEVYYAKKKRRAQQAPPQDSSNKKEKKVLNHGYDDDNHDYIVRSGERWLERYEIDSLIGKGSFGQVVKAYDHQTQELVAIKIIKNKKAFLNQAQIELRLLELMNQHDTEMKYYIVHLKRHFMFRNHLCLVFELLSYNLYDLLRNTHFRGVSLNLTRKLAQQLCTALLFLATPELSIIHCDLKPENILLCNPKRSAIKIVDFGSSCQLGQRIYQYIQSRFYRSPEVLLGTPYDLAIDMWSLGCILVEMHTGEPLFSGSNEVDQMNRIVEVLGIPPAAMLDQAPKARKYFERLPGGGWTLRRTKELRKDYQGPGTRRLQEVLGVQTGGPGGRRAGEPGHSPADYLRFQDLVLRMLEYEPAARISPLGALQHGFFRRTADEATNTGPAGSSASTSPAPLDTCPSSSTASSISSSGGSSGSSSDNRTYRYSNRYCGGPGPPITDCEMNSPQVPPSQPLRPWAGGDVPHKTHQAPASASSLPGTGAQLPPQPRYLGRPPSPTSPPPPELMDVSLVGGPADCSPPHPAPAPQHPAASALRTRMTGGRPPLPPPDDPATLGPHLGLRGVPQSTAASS
Procedure: Reaction Biology’s HotSpot platform (http://www.reactionbiology.com)[40], which employs a radiometric assay to measure phosphorylation of substrate, was used to validate the hits from the kinome binding assay. The radiometric assay is designed to directly detect the true product without the use of modified substrates, coupling enzymes, or detection antibodies. Test or control compounds are incubated with kinase, substrate, cofactors, and radioisotope-labelled ATP (33P-ɣ-ATP). The reaction mixtures are then spotted onto filter papers, which bind the radioisotope-labelled catalytic product, for subsequent measurement. Unreacted phosphate is removed via washing the filters[41]. Next, we decided to validate the observed activities in an orthogonal experimental method, namely direct inhibition of kinase catalytic activity using Reaction Biology’s HotSpot platform (http://www.reactionbiology.com)[40]. This platform employs a widely-used and validated radiometric assay which measures inhibition of the incorporation of radiolabelled phosphate into protein substrate[41].

| inhibition at 1 µM [1] | inhibition at 1 µM [2] | inhibition at 1 µM [3] | inhibition at 1 µM [4] | inhibition at 1 µM [5] | inhibition at 1 µM [6] | Compound | inhibition at 1 µM [7] | inhibition at 1 µM [8] | inhibition at 1 µM [9] | inhibition at 1 µM [10] | inhibition at 1 µM [11] | inhibition at 1 µM [12] |
| --- | --- | --- | --- | --- | --- | --- | --- | --- | --- | --- | --- | --- |
| 36% | 82% | 10% | -16% | -6% | -1% | CNCc1ccc(-c2[nH]c3cc(F)cc4c3c2CCNC4=O)cc1 [Rucaparib] | – | – | – | – | – | – |
| – | – | – | – | – | – | NC(=O)c1cccc2cn(-c3ccc([C@@H]4CCCNC4)cc3)nc12 [Niraparib] | 17% | 19% | 22% | -5% | 15% | 82% |
